Source: PubChem BioAssay (NCI)
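Method: 48-hour compound exposure of cells in 96-well plates, five concentrations, linear interpolation of endpoints. TGI: concentration producing complete growth inhibition.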

Experiments:
Assay in all cases: growth of human tumour cells (NCI), 48 h
SN12C renal = tested on: SN12C renal
HCT-15 colon = tested on: HCT-15 colon
SW-620 colon = tested on: SW-620 colon
HOP-62 NSCLC = tested on: HOP-62 NSCLC
ACHN renal = tested on: ACHN renal
IGROV1 ovarian = tested on: IGROV1 ovarian
DU-145 prostate = tested on: DU-145 prostate
UO-31 renal = tested on: UO-31 renal
CCRF-CEM leukemia = tested on: CCRF-CEM leukemia
OVCAR-8 ovarian = tested on: OVCAR-8 ovarian
LOX IMVI melanoma = tested on: LOX IMVI melanoma
MALME-3M melanoma = tested on: MALME-3M melanoma
CAKI-1 renal = tested on: CAKI-1 renal
HT29 colon = tested on: HT29 colon
M14 melanoma = tested on: M14 melanoma
SR leukemia = tested on: SR leukemia
MDA-N = tested on: MDA-N
RXF 393 renal = tested on: RXF 393 renal
U251 CNS = tested on: U251 CNS
SF-268 CNS = tested on: SF-268 CNS
EKVX NSCLC = tested on: EKVX NSCLC
HL-60(TB) leukemia = tested on: HL-60(TB) leukemia
SNB-75 CNS = tested on: SNB-75 CNS
NCI-H226 lung = tested on: NCI-H226 lung
A549 NSCLC = tested on: A549 NSCLC
HCT-116 colon = tested on: HCT-116 colon
UACC-257 melanoma = tested on: UACC-257 melanoma
OVCAR-5 ovarian = tested on: OVCAR-5 ovarian
HS 578T breast = tested on: HS 578T breast
NCI-H522 lung = tested on: NCI-H522 lung
MCF7 breast = tested on: MCF7 breast
HOP-92 NSCLC = tested on: HOP-92 NSCLC
MDA-MB-231 breast = tested on: MDA-MB-231 breast
SF-539 CNS = tested on: SF-539 CNS
786-0 renal = tested on: 786-0 renal
NCI/ADR-RES ovarian = tested on: NCI/ADR-RES ovarian
A498 renal = tested on: A498 renal
TK-10 renal = tested on: TK-10 renal
SNB-19 CNS = tested on: SNB-19 CNS
SK-MEL-28 melanoma = tested on: SK-MEL-28 melanoma
KM12 colon = tested on: KM12 colon
SK-MEL-5 melanoma = tested on: SK-MEL-5 melanoma
MOLT-4 leukemia = tested on: MOLT-4 leukemia
PC-3 prostate = tested on: PC-3 prostate
BT-549 breast = tested on: BT-549 breast
MDA-MB-435 = tested on: MDA-MB-435
NCI-H23 lung = tested on: NCI-H23 lung
NCI-H460 lung = tested on: NCI-H460 lung
SF-295 CNS = tested on: SF-295 CNS
K-562 leukemia = tested on: K-562 leukemia
OVCAR-3 ovarian = tested on: OVCAR-3 ovarian
SK-OV-3 ovarian = tested on: SK-OV-3 ovarian
COLO 205 colon = tested on: COLO 205 colon
SK-MEL-2 melanoma = tested on: SK-MEL-2 melanoma
HCC-2998 colon = tested on: HCC-2998 colon
RPMI-8226 leukemia = tested on: RPMI-8226 leukemia
UACC-62 melanoma = tested on: UACC-62 melanoma
OVCAR-4 ovarian = tested on: OVCAR-4 ovarian
T-47D breast = tested on: T-47D breast

Measured: TGI

CN1CCCCCC(=N\O)/C(=N/O)CCCCC1
> 100 µM: SN12C renal | HCT-15 colon | SW-620 colon | HOP-62 NSCLC | ACHN renal | IGROV1 ovarian | DU-145 prostate | UO-31 renal | CCRF-CEM leukemia | OVCAR-8 ovarian | LOX IMVI melanoma | MALME-3M melanoma | CAKI-1 renal | HT29 colon | M14 melanoma | SR leukemia | MDA-N | RXF 393 renal | U251 CNS | SF-268 CNS | EKVX NSCLC | HL-60(TB) leukemia | SNB-75 CNS | NCI-H226 lung | A549 NSCLC | HCT-116 colon | UACC-257 melanoma | OVCAR-5 ovarian | HS 578T breast | NCI-H522 lung | MCF7 breast | HOP-92 NSCLC | MDA-MB-231 breast | SF-539 CNS | 786-0 renal | NCI/ADR-RES ovarian | A498 renal | TK-10 renal | SNB-19 CNS | SK-MEL-28 melanoma | KM12 colon | SK-MEL-5 melanoma | MOLT-4 leukemia | PC-3 prostate | BT-549 breast | MDA-MB-435 | NCI-H23 lung | NCI-H460 lung | SF-295 CNS | K-562 leukemia | OVCAR-3 ovarian

O=C(O)c1ccccc1C(=O)Nn1cnnc1
> 100 µM: SN12C renal | SK-OV-3 ovarian | HCT-15 colon | SW-620 colon | HOP-62 NSCLC | ACHN renal | IGROV1 ovarian | DU-145 prostate | UO-31 renal | CCRF-CEM leukemia | OVCAR-8 ovarian | LOX IMVI melanoma | COLO 205 colon | SK-MEL-2 melanoma | HCC-2998 colon | HT29 colon | M14 melanoma | MDA-N | RXF 393 renal | U251 CNS | SF-268 CNS | EKVX NSCLC | SNB-75 CNS | A549 NSCLC | RPMI-8226 leukemia | HCT-116 colon | UACC-257 melanoma | OVCAR-5 ovarian | NCI-H522 lung | MCF7 breast | HOP-92 NSCLC | MDA-MB-231 breast | SF-539 CNS | 786-0 renal | NCI/ADR-RES ovarian | UACC-62 melanoma | TK-10 renal | SNB-19 CNS | SK-MEL-28 melanoma | KM12 colon | SK-MEL-5 melanoma | MOLT-4 leukemia | PC-3 prostate | BT-549 breast | MDA-MB-435 | NCI-H23 lung | SF-295 CNS | K-562 leukemia | OVCAR-3 ovarian | OVCAR-4 ovarian

Cc1nn(-c2ccccc2)c2[nH]c(=S)cnc12
> 100 µM: SN12C renal | SK-OV-3 ovarian | SW-620 colon | HOP-62 NSCLC | IGROV1 ovarian | DU-145 prostate | UO-31 renal | CCRF-CEM leukemia | OVCAR-8 ovarian | LOX IMVI melanoma | MALME-3M melanoma | SK-MEL-2 melanoma | CAKI-1 renal | T-47D breast | HT29 colon | M14 melanoma | SR leukemia | MDA-N | RXF 393 renal | U251 CNS | SF-268 CNS | EKVX NSCLC | HL-60(TB) leukemia | NCI-H226 lung | A549 NSCLC | RPMI-8226 leukemia | HCT-116 colon | UACC-257 melanoma | OVCAR-5 ovarian | HS 578T breast | NCI-H522 lung | MCF7 breast | HOP-92 NSCLC | SF-539 CNS | 786-0 renal | NCI/ADR-RES ovarian | A498 renal | UACC-62 melanoma | TK-10 renal | SNB-19 CNS | SK-MEL-28 melanoma | MOLT-4 leukemia | PC-3 prostate | BT-549 breast | MDA-MB-435 | NCI-H23 lung | NCI-H460 lung | SF-295 CNS | K-562 leukemia | OVCAR-3 ovarian | OVCAR-4 ovarian

Cn1c(NS(=O)(=O)c2ccccc2)nc2ccccc21
> 100 µM: SN12C renal | SK-OV-3 ovarian | HCT-15 colon | SW-620 colon | ACHN renal | IGROV1 ovarian | DU-145 prostate | UO-31 renal | CCRF-CEM leukemia | OVCAR-8 ovarian | MALME-3M melanoma | COLO 205 colon | HCC-2998 colon | CAKI-1 renal | T-47D breast | HT29 colon | M14 melanoma | SR leukemia | MDA-N | RXF 393 renal | U251 CNS | SF-268 CNS | EKVX NSCLC | HL-60(TB) leukemia | SNB-75 CNS | NCI-H226 lung | A549 NSCLC | RPMI-8226 leukemia | HCT-116 colon | UACC-257 melanoma | OVCAR-5 ovarian | HS 578T breast | NCI-H522 lung | MCF7 breast | HOP-92 NSCLC | MDA-MB-231 breast | SF-539 CNS | 786-0 renal | NCI/ADR-RES ovarian | A498 renal | UACC-62 melanoma | TK-10 renal | SNB-19 CNS | SK-MEL-28 melanoma | KM12 colon | SK-MEL-5 melanoma | MOLT-4 leukemia | BT-549 breast | MDA-MB-435 | NCI-H23 lung | NCI-H460 lung | SF-295 CNS | K-562 leukemia | OVCAR-4 ovarian
